Experimental data reported in patent US20240174639A1, “PYRIDINE DERIVATIVES USEFUL AS HCN2 MODULATORS” (King's College London, priority 2021, published 2024).

Assays:
guinea pigs [1] = test: Tinnitus, short-term salicylate model, GPIAS test (Example 54); type: in vivo; conditions: salicylate 350 mg/kg i.p., 2 h, ivabradine 5 mg/kg s.c.
Excerpt: (§1) Tinnitus in guinea pigs was monitored using the gap induced inhibition of the acoustic startle (GPIAS) test (see FIG. 5). GPIAS is reduced when tinnitus was present; see Berger, J. I. et al. Effects of the cannabinoid CB1 agonist ACEA on salicylate ototoxicity, hyperacusis and tinnitus in guinea pigs. Hearing research, (2017), and Coomber, B. et al. Neural changes accompanying tinnitus following unilateral acoustic trauma in the guinea pig. Eur J Neurosci 40, 2427-2441, (2014).
(§2) In FIG. 5, sound stimulus (above) and corresponding pinna reflex (below) are shown in freely moving guinea pigs. Stimuli with no gap and gap are presented in a randomised order. Traces contaminated by movement (the upper trace in “no gap”) were removed before analysis.
Tinnitus was induced within 1-2 hours in humans by high doses of salicylate. A similar short-term tinnitus model was implemented in guinea pigs by i.p. injection of salicylate. In all animals, salicylate caused behavioural inhibition of GPIAS (see bar 2 in FIG. 6).
Salicylate (350 mg/kg, i.p.) impairs behavioural gap detection 2 h after salicylate administration (see bar 2 in of FIG. 6). Gap detection was restored by blocking HCN channels with ivabradine (5 mg/kg, s.c.).

Black6 mice = conditions: mouse, in vivo, ip; cited from earlier work
guinea pigs [2] = test: Tinnitus, noise-exposure model, GPIAS test (Example 54); type: in vivo
Excerpt: as §1, §2
The noise-exposure model is more clinically relevant than the salicylate model, as it parallels a common cause of tinnitus in humans. A second important point is that it is long-term, while tinnitus induced by salicylate is rapidly reversed following salicylate exposure.
GPIAS returns following drug wash-out (see bar D in FIG. 7).

[3] = Evaluation of CNS penetration: plasma, brain and auditory nerve levels (Example 55); type: in vivo; conditions: other: injection, guinea pig, 30 min after injection, preliminary, n=2
Procedure: Ivabradine in guinea pig plasma, brain (somatosensory cortex) and auditory nerve were assayed at 30 min after injection, the time used in Example 130. Ratios of total concentrations in preliminary experiments for plasma:brain:auditory nerve were 1:0.12:0.57 (n=2). The small amount (12% of plasma level) detected in brain is largely accounted for by the presence of ivabradine within the vascular supply of the brain. As in other species, therefore, ivabradine is strongly excluded from guinea pig brain because of its hydrophilicity and Pgp substrate activity; see Young, G. T., Emery, E. C., Mooney, […]. […] Pain 155, 1708-1719, (2014).

adult mice = type: in vivo; conditions: tone pulses 3 kHz to 42 kHz

For `COc1cc2c(cc1OC)CC(=O)N(CCCN(C)C[C@H]1Cc3cc(OC)c(OC)cc31)CC2` [ivabradine], the “effect on GPIAS (behavioural gap detection)” value (guinea pigs [1]) is given as “reversed GPIAS”, the “therapeutic window between analgesia and bradycardia” value (Black6 mice) is given as “little therapeutic window” and the “effect on reduced GPIAS following noise exposure” value (guinea pigs [2]; guinea pigs with impaired GPIAS after unilateral noise exposure, 5 mg/kg s.c.) is given as “rapidly and completely reversed”. The “effect on GPIAS in control experiments” value (guinea pigs [2]; noise-exposed guinea pigs showing no behavioural evidence of tinnitus, n=3) was “without effect on GPIAS”, the Kp at 30 min ([3]; auditory nerve / plasma, read-out: ratio of total concentrations auditory nerve:plasma) was 0.57 and the Kp at 0.5 h ([3]; brain (somatosensory cortex) / plasma, somatosensory cortex, read-out: ratio of total concentrations brain:plasma) was 0.12. The “effect on ABR threshold or latency” value (adult mice) was “no significant difference”.
